# “And” between values parts separate entries of the source, which are not always exact repeats. Identical values can stand only once.
# Target: T1, Tdp1 (Homo sapiens, UniProt Q9NUW8)
# T1 construct: inferred from the pET 16B vector and the Ni-chelating resin) (N); made in house
# Experiment: Real-time detection of Tdp1 activity with FAM-BHQ1 oligonucleotide biosensor
# Assay type: biochemical
# Details: IC50 (concentration that inhibits the activity of the enzyme by 50%), samples synthesized by the authors; 50 nM biosensor, 1.3 nM Tdp1, 26 °C
# Text: For testing, we used recently designed oligonucleotide biosensors for the real-time detection of Tdp1 activity based on the ability of Tdp1 to remove fluorophore quenchers from the 3′-end of DNA [27]. The hexadecameric oligonucleotide carried 5(6)-carboxyfluorescein (FAM) at the 5′-end and fluorophore quencher BHQ1 (Black Hole Quencher-1) at the 3′-end. Tdp1 inhibitors prevent the removal of fluorophore quenchers, thus reducing fluorescence intensity.
# The recombinant Tdp1 was purified to homogeneity by chromatography on Ni-chelating resin and phosphocellulose P11 as described using the plasmid pET 16B-Tdp1 kindly provided by Dr. K.W. Caldecott (University of Sussex, United Kingdom).
# Real-Time Detection of Tdp1 Activity. The Tdp1 activity measurements were carried out as described. Briefly, Tdp1-biosensor with a final concentration of 50 nM was incubated in a volume of 200 μL containing a Tdp1 buffer (50 mM Tris-HCl pH8.0, 50 mM NaCl, 7 mM β-mercaptoethanol) supplemented with purified 1.3 nM Tdp1 and various concentrations of the inhibitor in a 1.5% DMSO solution. Fluorescence measurements (Ex485/Em520 nm) were carried out during the linear phase of reaction (from 0 to 8 min) every 55 s. The reactions were incubated at a constant temperature of 26 °C in a POLARstar OPTIMA fluorimeter, BMG LABTECH, GmbH. The influence of compounds was evaluated by comparing the fluorescence increase rate in the presence of compounds to that of the DMSO control wells.
# T1 sequence (Q9NUW8 whole entry): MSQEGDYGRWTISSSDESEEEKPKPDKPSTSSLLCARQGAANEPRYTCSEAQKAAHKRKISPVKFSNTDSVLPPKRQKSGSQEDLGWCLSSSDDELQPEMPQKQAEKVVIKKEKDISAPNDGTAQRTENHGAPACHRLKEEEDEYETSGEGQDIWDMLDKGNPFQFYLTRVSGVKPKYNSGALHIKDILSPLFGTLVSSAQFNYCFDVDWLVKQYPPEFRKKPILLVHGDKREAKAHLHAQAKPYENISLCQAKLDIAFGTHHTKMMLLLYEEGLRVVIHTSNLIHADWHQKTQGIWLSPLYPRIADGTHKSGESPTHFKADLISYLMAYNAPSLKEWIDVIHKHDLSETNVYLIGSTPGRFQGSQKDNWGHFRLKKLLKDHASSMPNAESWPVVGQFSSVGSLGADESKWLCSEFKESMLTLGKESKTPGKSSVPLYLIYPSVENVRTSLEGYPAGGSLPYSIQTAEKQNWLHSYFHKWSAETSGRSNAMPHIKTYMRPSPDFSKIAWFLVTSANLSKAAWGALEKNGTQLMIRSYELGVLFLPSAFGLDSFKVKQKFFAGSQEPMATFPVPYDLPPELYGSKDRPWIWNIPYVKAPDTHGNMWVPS
row,Structure (SMILES),IC50
1,CC(=O)OC1CCC2(C)C(C1)CC(OC(C)=O)C1C2CCC2(C)C(C(C)CCC(=O)NCCc3c[nH]c4ccccc34)CCC12 (centres unmarked) [Compound 1a],320 ± 110 nM
2,CC(CCC(=O)NCCc1c[nH]c2ccccc12)C1CCC2C3C(O)CC4CC(O)CCC4(C)C3CCC12C (centres unmarked) [Compound 1b],2650 ± 300 nM
3,CC(=O)OC1CCC2(C)C(C1)CC(OC(C)=O)C1C2CCC2(C)C(C(C)CCC(=O)NCCc3c[nH]c4ccccc34)CCC12 (centres unmarked) [Compound 2a],380 ± 120 nM
4,CC(CCC(=O)NCCc1c[nH]c2ccccc12)C1CCC2C3C(O)CC4CC(O)CCC4(C)C3CCC12C (centres unmarked) [Compound 2b],~2600 nM and 2600 nM
5,CC(=O)OC1CCC2(C)C(CCC3C2CC(OC(C)=O)C2(C)C(C(C)CCC(=O)NCCc4c[nH]c5ccccc45)CCC32)C1 (centres unmarked) [Compound 3a],650 ± 160 nM
6,CC(CCC(=O)NCCc1c[nH]c2ccccc12)C1CCC2C3CCC4CC(O)CCC4(C)C3CC(O)C12C (centres unmarked) [Compound 3b],2700 ± 200 nM
7,CC(=O)OC1CC2C(CCC3CC(O)CCC32C)C2CCC(C(C)CCC(=O)NCCc3c[nH]c4ccccc34)C12C (centres unmarked) [Compound 3c],950 ± 50 nM
8,CC(=O)OC1CCC2(C)C(CCC3C2CC(O)C2(C)C(C(C)CCC(=O)NCCc4c[nH]c5ccccc45)CCC32)C1 (centres unmarked) [Compound 3d],480 ± 40 nM
9,"CC(=O)O[C@@H]1CC[C@@]2(C)[C@H](CC[C@@H]3[C@@H]2C[C@H](OC(C)=O)[C@]2(C)[C@@H]([C@H](C)CCC(=O)Nc4ccccc4)CC[C@@H]32)C1 [Compound 4a, N-Phenyl-3α,12α-diacetoxy-5β-cholan-24-amide]",430 ± 130 nM
10,"C[C@H](CCC(=O)Nc1ccccc1)[C@H]1CC[C@H]2[C@@H]3CC[C@@H]4C[C@H](O)CC[C@]4(C)[C@H]3C[C@H](O)[C@]12C [Compound 4b, N-Phenyl-3α,12α-dihydroxy-5β-cholan-24-amide]",6700 ± 700 nM
11,"CC(=O)O[C@@H]1CC[C@@]2(C)[C@H](CC[C@@H]3[C@@H]2C[C@H](OC(C)=O)[C@]2(C)[C@@H]([C@H](C)CCC(=O)Nc4ccc(Br)cc4)CC[C@@H]32)C1 [Compound 5a, N-(4′-Bromophenyl)-3α,12α-diacetoxy-5β-cholan-24-amide]",420 ± 10 nM
12,"C[C@H](CCC(=O)Nc1ccc(Br)cc1)[C@H]1CC[C@H]2[C@@H]3CC[C@@H]4C[C@H](O)CC[C@]4(C)[C@H]3C[C@H](O)[C@]12C [Compound 5b, N-(4′-Bromophenyl)-3α,12α-dihydroxy-5β-cholan-24-amide]",1300 ± 200 nM
13,"CC(=O)O[C@@H]1CC[C@@]2(C)[C@H](CC[C@@H]3[C@@H]2C[C@H](OC(C)=O)[C@]2(C)[C@@H]([C@H](C)CCC(=O)Nc4ccc(C)cc4)CC[C@@H]32)C1 [Compound 6a, N-(p-Tolyl)-3α,12α-diacetoxy-5β-cholan-24-amide]",1000 ± 50 nM
14,"Cc1ccc(NC(=O)CC[C@@H](C)[C@H]2CC[C@H]3[C@@H]4CC[C@@H]5C[C@H](O)CC[C@]5(C)[C@H]4C[C@H](O)[C@]23C)cc1 [Compound 6b, N-(p-Tolyl)-3α,12α-dihydroxy-5β-cholan-24-amide]",7600 ± 3900 nM
15,"CC(=O)O[C@@H]1CC[C@@]2(C)[C@H](CC[C@@H]3[C@@H]2C[C@H](OC(C)=O)[C@]2(C)[C@@H]([C@H](C)CCC(=O)Nc4cccnc4)CC[C@@H]32)C1 [Compound 7a, N-(Pyridin-3-yl)-3α,12α-diacetoxy-5β-cholan-24-amide]",4080 ± 80 nM
16,"C[C@H](CCC(=O)Nc1cccnc1)[C@H]1CC[C@H]2[C@@H]3CC[C@@H]4C[C@H](O)CC[C@]4(C)[C@H]3C[C@H](O)[C@]12C [Compound 7b, N-(Pyridin-3-yl)-3α,12α-dihydroxy-5β-cholan-24-amide]",> 15000 nM
17,"CC(=O)O[C@@H]1CC[C@]2(C)C3C[C@H](OC(C)=O)[C@@]4(C)C(CC[C@@H]4[C@H](C)CCC(=O)NC45CC6CC(CC(C6)C4)C5)[C@@H]3CC[C@@H]2C1 (stereo partly drawn) [Compound 8a, N-(1′-Adamantyl)-3α,12α-diacetoxy-5β-cholan-24-amide]",470 ± 80 nM
18,"C[C@H](CCC(=O)NC12CC3CC(CC(C3)C1)C2)[C@H]1CCC2[C@@H]3CC[C@@H]4C[C@H](O)CC[C@]4(C)C3C[C@H](O)[C@@]21C (stereo partly drawn) [Compound 8b, N-(1′-Adamantyl)-3α,12α-dihidroxy-5β-cholan-24-amide]",2300 ± 400 nM
19,"CC(=O)OC1CCC2(C)C(CCC3C2CC(OC(C)=O)C2(C)C(C(C)CCC(=O)NCCc4cc(C(C)(C)C)c(O)c(C(C)(C)C)c4)CCC32)C1 (stereo not drawn) [Compound 9a, N-(2′′-(3′,5′-Di-tret-buthyl-4′-hydroxyphenyl)-ethyl)-3α,12α-diacetoxy-5β-cholan-24-amide]",290 ± 120 nM
20,"CCN(CC)CCCNC(=O)CC[C@@H](C)[C@H]1CCC2[C@@H]3CC[C@@H]4C[C@H](OC(C)=O)CC[C@]4(C)C3C[C@H](OC(C)=O)[C@@]21C (stereo partly drawn) [Compound 10a, N-(3′,3′-Diethylaminopropyl)-3α,12α-diacetoxy-5β-cholan-24-amide]",> 15000 nM
21,"CC(=O)O[C@@H]1CC[C@@]2(C)[C@H](CC[C@@H]3[C@@H]2C[C@H](OC(C)=O)[C@]2(C)[C@@H]([C@H](C)CCC(=O)NCCCN4CCOCC4)CC[C@@H]32)C1 [Compound 11a, N-(3′-Morpholinopropyl)-3α,12α-diacetoxy-5β-cholan-24-amide]",> 15000 nM

# Same assay, conditions: commercial sample of compound 1b (virtual screening hit); read-out: IC50
row,Structure (SMILES),IC50 [nM]
1,CC(CCC(=O)NCCc1c[nH]c2ccccc12)C1CCC2C3C(O)CC4CC(O)CCC4(C)C3CCC12C (centres unmarked) [Compound 1b],300

# Target: T1, Tdp1
# Experiment: not given
# Details: single- and double-stranded substrates of DNA; cited from earlier work
row,Structure (SMILES),Tdp1 inhibition
1,"N=C(N)c1ccc(-c2ccc(-c3ccc(C(=N)N)cc3)o2)cc1 [Fur, furamidine]",low micromolar concentrations
